Assay [1] is described as follows: Inhibition of SOAT1 in arterial homogenates isolated from 1% cholesterol fed New Zealand white rabbit assessed as reduction in cholesteryl oleate formation incubated for 5 mins in presence of [14C]-oleoyl-CoA and BSA complex by TLC method. The format is tissue-based, Oryctolagus cuniculus.
Assay [2] is described as follows: Inhibition of SOAT2 in New Zealand white rabbit intestinal microsomes assessed as reduction in cholesteryl oleate formation incubated for 5 mins in presence of [14C]-oleoyl-CoA and BSA complex by TLC method. The arrangement: species or system Oryctolagus cuniculus, Intestine.
The species entered for a further assay is Oryctolagus cuniculus. The assay can be described thus: Selectivity ratio of IC50 for inhibition of SOAT2 in New Zealand white rabbit intestinal microsomes to IC50 for inhibition of SOAT1 in arterial homogenates isolated from 1% cholesterol fed New Zealand white rabbit.
Assay [3] has as its target T1, Sterol O-acyltransferase 1 (Mus musculus, UniProt Q61263).
T1 sequence (Q61263 whole entry): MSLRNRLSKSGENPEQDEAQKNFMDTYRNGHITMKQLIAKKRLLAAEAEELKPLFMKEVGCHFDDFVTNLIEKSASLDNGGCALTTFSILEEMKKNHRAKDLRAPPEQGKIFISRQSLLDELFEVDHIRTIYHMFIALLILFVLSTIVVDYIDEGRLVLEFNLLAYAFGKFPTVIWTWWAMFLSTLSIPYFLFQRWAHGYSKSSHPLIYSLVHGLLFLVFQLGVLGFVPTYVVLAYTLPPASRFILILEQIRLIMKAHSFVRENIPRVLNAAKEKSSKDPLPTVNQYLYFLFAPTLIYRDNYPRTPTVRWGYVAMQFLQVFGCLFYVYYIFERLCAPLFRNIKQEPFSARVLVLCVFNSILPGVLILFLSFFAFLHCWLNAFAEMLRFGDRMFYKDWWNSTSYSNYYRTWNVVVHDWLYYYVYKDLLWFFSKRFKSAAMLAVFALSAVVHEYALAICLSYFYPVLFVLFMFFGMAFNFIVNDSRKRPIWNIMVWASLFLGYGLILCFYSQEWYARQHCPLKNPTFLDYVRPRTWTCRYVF
Description: Inhibition of ACAT1 in mouse J774 cells assessed as reduction in esterified cholesterol accumulation after 18 hrs in presence of 25-hydroxycholesterol. It counts as cell-based.

On to `Cc1ccc2nc(SCCCCCC(=O)Nc3c(C(C)C)cccc3C(C)C)oc2c1`, for which the 50% inhibitory concentration (IC50) (commonly the concentration needed to halve the response being measured) is 34 nM in assay [1], 110 nM in assay [2] and 400 nM in assay [3]. Further, the Ratio IC50 in the assay filed under Oryctolagus cuniculus was 3.2.

Regarding `CC(C)c1cccc(C(C)C)c1NC(=O)CCCCSc1nc2ccccc2[nH]1`, the half-inhibitory concentration (IC50) in assay [1] amounted to 390 nM; in assay [2], 430 nM; in assay [3], 5200 nM. For the same compound, in the assay listed under Oryctolagus cuniculus, the Ratio IC50 turned out to be 1.1.

`CC(C)c1cccc(C(C)C)c1NC(=O)CCCCCCCSc1nc2ccccc2s1`: the half-maximal inhibitory concentration (IC50) in assay [1] was 7 nM; in assay [2], 36 nM; in assay [3], 59 nM. The Ratio IC50 in the assay listed under Oryctolagus cuniculus amounted to 5.1.

In the case of `CC(C)c1cccc(C(C)C)c1NC(=O)CCCCCSc1nc2ncccc2o1`, the values for the IC50 in assay [1] and in assay [2] were 25 nM and 140 nM, respectively.

Regarding `CC(C)c1cccc(C(C)C)c1NC(=O)CCCCCSc1nc2cccnc2o1`, the results for the 50% inhibitory concentration (IC50) in assay [1], in assay [2] and in assay [3] were 24 nM, 36 nM and 3000 nM, respectively. For the same compound, in the assay listed under Oryctolagus cuniculus, the Ratio IC50 was 1.5.

Take `CC(C)c1cccc(C(C)C)c1NC(=O)CCCCCSc1nc2ccc(CN(C)C)cc2o1`: the IC50 in assay [1] stood at 130 nM; in assay [2], 370 nM; in assay [3], 2400 nM. Also, the Ratio IC50 in the assay filed under Oryctolagus cuniculus is 2.8.

Take `CC(C)c1cccc(C(C)C)c1NC(=O)CCCCCSc1nc2cccc(C(=O)O)c2o1`: the Ratio IC50 in the assay filed under Oryctolagus cuniculus was determined as 1. Further, the IC50 in assay [3] stood at 11000 nM.

Regarding `CC(C)c1cccc(C(C)C)c1NC(=O)CCCCCSc1nc2cc(C(=O)O)ccc2o1`, the IC50 in assay [1] was determined as 3600 nM; in assay [2], 4500 nM; in assay [3], 11000 nM. Moreover, in the assay filed under Oryctolagus cuniculus, the Ratio IC50 worked out at 1.3.

Consider `CC(C)c1cccc(C(C)C)c1NC(=O)CCCCCCCCSc1nc2ccccc2[nH]1`, for which the half-maximal inhibitory concentration (IC50) in assay [1] was found to be 14 nM; in assay [2], 31 nM; in assay [3], 300 nM. Further, in the assay listed under Oryctolagus cuniculus, the Ratio IC50 came out at 2.2.

Regarding `CC(C)c1cccc(C(C)C)c1NC(=O)CCCCCSc1nc2ccc(C(=O)O)cc2o1`, the IC50 in assay [1] was 2100 nM; in assay [2], 5000 nM; in assay [3] it was 4400 nM. Further, in the assay listed under Oryctolagus cuniculus, the Ratio IC50 was found to be 2.4.

On to `CC(C)c1cccc(C(C)C)c1NC(=O)CCSc1nc2ccccc2s1`, for which the IC50 in assay [1] amounted to 4 nM; in assay [2], 19 nM; in assay [3], 280 nM. For the same compound, the Ratio IC50 in the assay filed under Oryctolagus cuniculus amounted to 4.8.

On to `CC(C)c1cccc(C(C)C)c1NC(=O)CSc1nc2ccccc2o1`, for which the values for the IC50 in assay [1] and in assay [2] were 35 nM and 200 nM, respectively. In addition, in the assay filed under Oryctolagus cuniculus, the Ratio IC50 came to 5.7.

Take `CC(C)c1cccc(C(C)C)c1NC(=O)CCCCSc1nc2ccccc2o1`: the IC50 in assay [1] is 84 nM; in assay [2], 220 nM; in assay [3] it was 3600 nM. The Ratio IC50 in the assay filed under Oryctolagus cuniculus came to 2.6.

On to `CC(C)c1cccc(C(C)C)c1NC(=O)CCCCCSc1nc2cnccc2o1`, for which the IC50 was 45 nM in assay [1], 150 nM in assay [2] and 2800 nM in assay [3]. In addition, the Ratio IC50 in the assay listed under Oryctolagus cuniculus is 3.3.

For `CC(=O)Nc1c(C(C)C)cccc1C(C)C`, in assay [1], the IC50 is 8600 nM.

For `CC(C)c1cccc(C(C)C)c1NC(=O)CCCCCSc1nc2ccc(O)cc2o1`, the values for the IC50 in assay [1], in assay [2] and in assay [3] were 53 nM, 81 nM and 2300 nM, respectively. Also, the Ratio IC50 in the assay listed under Oryctolagus cuniculus stood at 1.5.

Turning to `COC(=O)c1ccc2oc(SCCCCCC(=O)Nc3c(C(C)C)cccc3C(C)C)nc2c1`, the IC50 in assay [1] was found to be 70 nM; in assay [2], 210 nM. For the same compound, the Ratio IC50 in the assay filed under Oryctolagus cuniculus came to 3.

Turning to `CC(C)c1cccc(C(C)C)c1NC(=O)CCCCCCCCCCCCCCSc1nc2ccccc2o1`, the IC50 is 40 nM in assay [1], 44 nM in assay [2] and 410 nM in assay [3]. The Ratio IC50 in the assay listed under Oryctolagus cuniculus turned out to be 1.1.

With `CC(C)c1cccc(C(C)C)c1NC(=O)CCCCCSc1nc2ccccc2s1`, the half-inhibitory concentration (IC50) in assay [1] was 26 nM; in assay [2], 33 nM; in assay [3] it was 5200 nM. Besides, in the assay listed under Oryctolagus cuniculus, the Ratio IC50 is 1.3.

As for `CC(C)c1cccc(C(C)C)c1NC(=O)CCSc1nc2ccccc2o1`, in assay [1], the IC50 turned out to be 15 nM.

With `CC(C)c1cccc(C(C)C)c1NC(=O)CCCCCCCCCSc1nc2ccccc2o1`, the figures for the IC50 in assay [1], in assay [2] and in assay [3] were 6 nM, 14 nM and 100 nM, respectively. For the same compound, in the assay filed under Oryctolagus cuniculus, the Ratio IC50 turned out to be 2.3.

With `CC(C)c1cccc(C(C)C)c1NC(=O)CCCCCSc1nc2ccncc2o1`, the 50% inhibitory concentration (IC50) in assay [1] came to 41 nM; in assay [2] it was 160 nM; in assay [3], 4100 nM. Besides, in the assay filed under Oryctolagus cuniculus, the Ratio IC50 amounted to 3.9.

For the compound `CC(C)c1cccc(C(C)C)c1NC(=O)CCCCCSc1nc2cccc(CN(C)C)c2o1`, the IC50 in assay [1] turned out to be 96 nM; in assay [2] it was 130 nM; in assay [3], 5600 nM. Also, the Ratio IC50 in the assay filed under Oryctolagus cuniculus came to 1.4.

On to `CC(C)c1cccc(C(C)C)c1NC(=O)CCCSc1nc2ccccc2[nH]1`, for which the results for the IC50 in assay [1], in assay [2] and in assay [3] were 300 nM, 800 nM and 3100 nM, respectively. Further, the Ratio IC50 in the assay filed under Oryctolagus cuniculus came to 2.7.

As for `CC(C)c1cccc(C(C)C)c1NC(=O)CCCCSc1nc2ccccc2s1`, the results for the concentration for half-maximal inhibition (IC50) in assay [1], in assay [2] and in assay [3] were 62 nM, 130 nM and 57000 nM, respectively. Also, the Ratio IC50 in the assay filed under Oryctolagus cuniculus is 2.1.

On to `CC(C)c1cccc(C(C)C)c1NC(=O)CCCCCSc1nc2c(O)cccc2o1`, for which the IC50 worked out at 240 nM in assay [1], 240 nM in assay [2] and 8800 nM in assay [3]. Further, the Ratio IC50 in the assay listed under Oryctolagus cuniculus amounted to 1.

`CCCCCCCN(CCCCCSc1nc(-c2ccccc2)c(-c2ccccc2)[nH]1)C(=O)Nc1ccc(F)cc1F` [LECIMIBIDE]: the half-inhibitory concentration (IC50) was found to be 36 nM in assay [1], 20 nM in assay [2] and 820 nM in assay [3].

Take `CSc1nc2ccccc2o1`: in assay [1], the half-inhibitory concentration (IC50) amounted to 31000 nM.

For `COC(=O)c1ccc2nc(SCCCCCC(=O)Nc3c(C(C)C)cccc3C(C)C)oc2c1`, the IC50 was 29 nM in assay [1], 110 nM in assay [2] and 500 nM in assay [3]. In the assay listed under Oryctolagus cuniculus, the Ratio IC50 was 3.8.

Regarding `CC(C)c1cccc(C(C)C)c1NC(=O)CCCCCSc1nc2ccc(N(C)C)cc2o1`, the half-maximal inhibitory concentration (IC50) was found to be 15 nM in assay [1], 94 nM in assay [2] and 1100 nM in assay [3]. The Ratio IC50 in the assay filed under Oryctolagus cuniculus was determined as 6.3.

For `CC(C)c1cccc(C(C)C)c1NC(=O)CCCCCCCCCCCCCCSc1nc2ccccc2s1`, the IC50 in assay [1] stood at 88 nM; in assay [2], 93 nM; in assay [3], 1800 nM. The Ratio IC50 in the assay filed under Oryctolagus cuniculus turned out to be 1.1.

As for `CC(C)c1cccc(C(C)C)c1NC(=O)CCCSc1nc2ccccc2o1`, the half-inhibitory concentration (IC50) in assay [1] was found to be 36 nM; in assay [3], 2800 nM.

Consider `CC(C)c1cccc(C(C)C)c1NC(=O)CCCCCSc1nc2c(C(=O)O)cccc2o1`, for which the concentration for half-maximal inhibition (IC50) in assay [3] is 11000 nM.

With `CC(C)c1cccc(C(C)C)c1NC(=O)CCCCCSc1nc2ccccc2[nH]1`, the values for the IC50 in assay [1], in assay [2] and in assay [3] were 26 nM, 38 nM and 350 nM, respectively. Also, the Ratio IC50 in the assay filed under Oryctolagus cuniculus was 1.5.

With `CC(C)c1cccc(C(C)C)c1NC(=O)CCCCCSc1nc2cc(N(C)C)ccc2o1`, the results for the IC50 in assay [1], in assay [2] and in assay [3] were 43 nM, 250 nM and 500 nM, respectively. For the same compound, the Ratio IC50 in the assay filed under Oryctolagus cuniculus was 5.8.

With `CC(C)c1cccc(C(C)C)c1NC(=O)CCCCCCCSc1nc2ccccc2[nH]1`, the results for the IC50 in assay [1] and in assay [3] were 18 nM and 30 nM, respectively. Besides, in the assay filed under Oryctolagus cuniculus, the Ratio IC50 was 1.7.

With `CC(C)c1cccc(C(C)C)c1NC(=O)CCCCCSc1nc2ccccc2o1`, the 50% inhibitory concentration (IC50) in assay [1] is 10 nM; in assay [2], 65 nM; in assay [3], 1900 nM. The Ratio IC50 in the assay filed under Oryctolagus cuniculus is 6.5.

In the case of `CC(C)c1cccc(C(C)C)c1NC(=O)CCCCCSc1nc2cc(CN(C)C)ccc2o1`, the IC50 in assay [1] was found to be 250 nM; in assay [2] it was 170 nM; in assay [3], 1800 nM. In the assay filed under Oryctolagus cuniculus, the Ratio IC50 was 0.7.

Consider `CC(C)c1cccc(C(C)C)c1NC(=O)CCCCCSc1nc2ccc(CO)cc2o1`, for which the results for the IC50 in assay [1], in assay [2] and in assay [3] were 76 nM, 180 nM and 7000 nM, respectively. The Ratio IC50 in the assay listed under Oryctolagus cuniculus amounted to 2.4.

Turning to `CC(C)c1cccc(C(C)C)c1NC(=O)CCCCCSc1nc2cccc(CO)c2o1`, the figures for the IC50 in assay [1], in assay [2] and in assay [3] were 56 nM, 110 nM and 2200 nM, respectively. The Ratio IC50 in the assay filed under Oryctolagus cuniculus was 2.

Regarding `CCCCSc1nc2ccccc2o1`, the IC50 in assay [1] was determined as 26000 nM.

For `CC(C)c1cccc(C(C)C)c1NC(=O)CCCCCCSc1nc2ccccc2o1`, the half-inhibitory concentration (IC50) in assay [1] was 5 nM; in assay [2], 30 nM. Also, the Ratio IC50 in the assay listed under Oryctolagus cuniculus came out at 6.

On to `CCCCCC(=O)Nc1c(C(C)C)cccc1C(C)C`, for which the 50% inhibitory concentration (IC50) in assay [1] amounted to 170 nM.

In the case of `CC(C)c1cccc(C(C)C)c1NC(=O)CCCCCSc1nc2c(CN(C)C)cccc2o1`, the IC50 in assay [1] turned out to be 42 nM; in assay [2] it was 320 nM. The Ratio IC50 in the assay filed under Oryctolagus cuniculus worked out at 7.6.

Take `CC(C)c1cccc(C(C)C)c1NC(=O)CCCSc1nc2ccccc2s1`: the half-inhibitory concentration (IC50) came out at 28 nM in assay [1] and 100 nM in assay [2]. For the same compound, the Ratio IC50 in the assay filed under Oryctolagus cuniculus is 3.6.
